Several values for one entry are separate records, joined by “and”; a condition that tells them apart may be missing. Equal entries are not always repeated. Where two headings read alike, the source gives them in different places.
Assays:
Adenosine A1 receptor [1] = experiment: A1-agonist stimulated [35S]GTPγS binding to G proteins; assay type: biochemical; conditions: for GTPγS: Table 1, compounds of Example 2, normalized to the full agonist CPA; for GTPγS (% of CPA): Table 5
Description: At the end of the incubation, each suspension was filtered and the retained radioactivity determined as described above.

Adenosine A1 receptor [2] = target: T1, Adenosine A1 receptor (Cavia porcellus, UniProt P47745); experiment: Affinity binding (Ki) of Tables 4 and 5
T1 construct: from tissue; host or cells: guinea pig forebrain membranes
T1 sequence (P47745 1-326): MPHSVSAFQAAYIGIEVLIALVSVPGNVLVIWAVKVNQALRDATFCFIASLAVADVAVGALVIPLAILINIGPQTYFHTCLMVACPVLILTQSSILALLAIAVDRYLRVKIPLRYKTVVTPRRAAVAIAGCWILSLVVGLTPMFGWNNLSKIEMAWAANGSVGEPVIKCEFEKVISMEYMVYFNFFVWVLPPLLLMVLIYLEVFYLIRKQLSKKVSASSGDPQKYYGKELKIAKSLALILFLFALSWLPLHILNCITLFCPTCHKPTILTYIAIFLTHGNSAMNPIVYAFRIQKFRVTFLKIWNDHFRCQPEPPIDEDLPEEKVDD
Description: The binding affinity of a compound is evaluated in a competitive binding assay.

[3] = tested on: guinea pig isolated heart; experiment: A-V nodal conduction time / S-H interval, isolated perfused heart; conditions: for S-H interval Efficacy: Table 5, 2759 = CVT-2759; for EC50: Cavia porcellus
Description: This method evaluates the potencies of compounds to cause coronary vasodilation (A2A AdoR response) and to prolong A-V nodal conduction time (A1 AdoR response).
Rats and guinea pigs, of either sex weighing from 230 to 260 grams and 300 to 350 grams, respectively, were used in this study. Animals were anesthetized by peritoneal injection of a cocktail containing ketamine and xylazine (ketamine 100 mg, xylazine 20 mg/ml). The chest was opened and the heart quickly removed. The heart was briefly rinse in ice-cold Krebs-Henseleit solution (see below), and the aorta cannulated. The heart was then perfused at a flow rate of 10 ml/min with modified Krebs-Henseleit (K-H) solution containing NaCl 117.9, KCl 4.5, CaCl2 2.5, MgSO4 1.18, KH2PO4 1.18, pyruvate 2.0 mmol. The K-H solution (pH 7.4) was gassed continuously with 95% O2 and 5% CO2 and warmed to 35±0.50° C. The heart was electrically paced at a fixed cycle length of […] (250 beats/min) using a bipolar electrode place on the left atrium. The electrical stimuli were generated by a Grass stimulator (Model S48, W. Warwick, R.I.) and delivered through a Stimuli Isolation Unit (Model SIU5, Astro-Med, Inc., NY) as square-wave pulses of 3-msec in duration and amplitude of at least twice the threshold intensity.
A1 adenosine receptor-mediated depression of A-V nodal conduction time (negative dromotropic effect) was measured. Atrial and ventricular surface electrograms in rats and His bundle electrogram in guinea pigs, were recorded during constant atrial pacing.
The effects of compounds on coronary conductance (A2A effect) and atrioventricular conduction time or stimulus-to-His-bundle (S-H) interval (A1 effect) was then determined. Hearts were instrumented for continuous recording of coronary perfusion pressure (A2A response) and atrioventricular (A-V) conduction time or S-H interval (A1 response). In each experiment, concentration-response relationship of compounds to increase coronary conductance and to prolong A-V conduction time or S-H interval was determined. After control measurements of CPP and A-V conduction time or S-H interval were made, progressive higher concentrations of the compound studied was administered until maximal coronary vasodilation and A-V nodal conduction time or S-H interval prolongation were achieved.
Guinea pigs (Hartley) of either sex weighing 300-350 g were anaesthetized with methoxyflurane and killed by decapitation. The chest was cut open and the heart was removed quickly and rinsed in ice-cold modified Krebs-Henseleit (K-H) solution. The contents of the modified K-H solution were (in mM): NaCl 117.9, KCl 4.8, CaCl2 2.5, MgSO2 1.18, KH2PO4 1.2, Na2 EDTA 0.5, ascorbic acid 0.14, dextrose 5.5, pyruvic acid (sodium salt) 2.0, and NaHCO3 25. The K-H solution was continuously gassed with 95% oxygen and 5% CO2, and the pH was adjusted to a value of 7.4. To perfuse the heart by the Langendorff method, the transected aorta was slid onto a glass cannula and secured by a ligature. Retrograde perfusion of the aorta was initiated immediately at a constant flow of 10 ml min-′ with modified K-H solution warmed to 36.0±0.5° C. A side port in the cannula was used to connect the perfusion line to a Gould pressure transducer for measurement of coronary perfusion pressure. Coronary perfusion pressure was continuously recorded on a strip chart (Gould RS3400, Cleveland, Ohio) throughout each experiment. Coronary conductance (in ml min^−1 mmHg^−1) was calculated as the ratio of coronary flow (10 ml min^−1) to perfusion pressure (mm Hg). To facilitate the exit of fluid from the left ventricle, the leaflets of the mitral valve were trimmed with fine spring-handled scissors. When appropriate, hearts were paced at a constant rate using external electrodes. […]

[4] = tested on: guinea pig isolated heart; experiment: Monophasic action potential duration, isolated heart; conditions: bolus (100 μl) of 1 mM adenosine
Description: Signals were considered adequate if they were stable for at least 5-10 min and the amplitudes exceeded 10 mV. The data were digitized at 2 kHz by a DT-2801A digitizing board (Data Translation, Marlboro, Mass.) and were saved for analysis using the Snapshot data acquisition program (Snapshot Storage Scope, HEM Data Corp., Southfield, Mich.). The duration of the atrial and ventricular monophasic action potentials was measured from onset of depolarization to either 50 or 90% of repolarization.

[5] = tested on: guinea pig isolated heart; conditions: previous study (12); cited from earlier work
[6] = Table 4, A-V nodal conduction time, read-out: EC50 A-V NCT
[7] = Table 5, S-H interval, read-out: EC50

GTPγS (% of CPA) (Adenosine A1 receptor [1])	Ki (Adenosine A1 receptor [2]; Table 5, read-out: Ki)	Ki (Adenosine A1 receptor [2]; Table 4, read-out: Ki low) [nM]	Compound	S-H interval Efficacy [3]	EC50 [3, 6] [nM]	other results
77 % of CPA	1110 nM		CCNC(=S)OC[C@H]1O[C@@H](n2cnc3c(N[C@@H]4CCOC4)ncnc32)[C@H](O)[C@@H]1O [Compound 46 of Example 2, 2-{6-[((3R)oxolan-3-yl)amino]purin-9-yl}(4S,2R,3R,5R)-5-{[(ethylamino)thioxomethoxy]methyl}oxolane-3,4-diol]	Full (Weak)		GTPγS (Adenosine A1 receptor [1]): 77%
	1370 nM		CC(C)NC(=S)OC[C@H]1O[C@@H](n2cnc3c(N[C@@H]4CCOC4)ncnc32)[C@H](O)[C@@H]1O [Compound 47 of Example 2, 2-{6-[((3R)oxolan-3-yl)amino]purin-9-yl}(4S,2R,3R,5R)-5-({[(methylethyl)amino]thioxomethoxy}methyl)oxolane-3,4-diol]			
89 % of CPA	895 nM	900	CCCNC(=S)OC[C@H]1O[C@@H](n2cnc3c(N[C@@H]4CCOC4)ncnc32)[C@H](O)[C@@H]1O [Compound 49 of Example 2, 2-{6-[((3R)oxolan-3-yl)amino]purin-9-yl}(4S,2R,3R,5R)-5-{[(propylamino)thioxomethoxy]methyl}oxolane-3,4-diol]	Partial	1400	GTPγS (Adenosine A1 receptor [1]): 89%
77 % of CPA	443 nM		CCCNC(=S)OC[C@H]1O[C@@H](n2cnc3c(N[C@@H]4CCOC4)nc(Cl)nc32)[C@H](O)[C@@H]1O [Compound 83 of Example 2, 2-{6-[((3R)oxolan-3-yl)amino]-2-chloropurin-9-yl}(4S,2R,3R,5R)-5-{[(propylamino)thioxomethoxy]methyl}oxolane-3,4-diol]	Partial		EC50 [3, 7]: 610 nM
77 % of CPA	346 nM	400	CNC(=S)OC[C@H]1O[C@@H](n2cnc3c(N[C@@H]4CCOC4)ncnc32)[C@H](O)[C@@H]1O [Compound 45 of Example 2, 2-{6-[((3R)oxolan-3-yl)amino]purin-9-yl}(4S,2R,3R,5R)-5-{[(methylamino)thioxomethoxy]methyl}oxolane-3,4-diol]	Partial	600	GTPγS (Adenosine A1 receptor [1]): 77%; EC50 [3, 7]: 570 nM
		2600	CNC(=O)OC[C@H]1O[C@@H](n2cnc3c(N[C@@H]4CCOC4)ncnc32)[C@H](O)[C@@H]1O [compound 6]		3100	
	9630 nM		CCCCNC(=O)OCC1OC(n2cnc3c(N[C@@H]4CCOC4)ncnc32)C(O)C1O (stereo partly drawn) [compound 27]			

Further lines, the compound ahead of its results:

Compound	GTPγS (% of CPA) (Adenosine A1 receptor [1])	Ki (Adenosine A1 receptor [2]; Table 5, read-out: Ki)	Ki (Adenosine A1 receptor [2]; Table 4, read-out: Ki low) [nM]	S-H interval Efficacy [3]	EC50 [3, 6] [nM]	other results
O[C@@H]1[C@H](O)[C@@H](CSc2ccccc2F)O[C@H]1n1cnc2c(N[C@@H]3CCOC3)ncnc21 [Compound 21 of Example 4, 2-{6-[((3R)oxolan-3-yl)amino]purin-9-yl}(4S,5S,2R,3R)-5-[(2-fluorophenylthio)methyl]oxolane-3,4-diol]	72 % of CPA	372 nM and 221 nM	600	Partial (>2759)	1200	EC50 [3, 7]: 1260 nM
O[C@@H]1[C@H](O)[C@@H](CSc2c(Cl)cccc2Cl)O[C@H]1n1cnc2c(N[C@@H]3CCOC3)ncnc21 [Compound 19 of Example 4, 2-{6-[((3R)oxolan-3-yl)amino]purin-9-yl}(4S,5S,2R,3R)-5-[(2,6-dichlorophenylthio)methyl]oxolane-3,4-diol]	89 % of CPA	1340 nM		Full (>2759)		
CCCn1c(=O)c2[nH]c(C3CCCC3)nc2n(CCC)c1=O [CPX, 8-cyclopentyl-1,3-dipropylxanthine, reference compound]						S-H interval ([3]; 50 nM CPX in continued presence of 10 μM Compound 6 of Example 2 (58±2 msec before CPX)): 50 ± 2 ms
O=C(NC1CCCC1)OC[C@H]1O[C@@H](n2cnc3c(N[C@@H]4CCOC4)nc(Cl)nc32)[C@H](O)[C@@H]1O [Compound 69 of Example 2, [(5-{6-[((3R)oxolan-3-yl)amino]-2-chloropurin-9-yl}(3S,2R,4R,5R)-3,4-dihydroxyoxolan-2-yl)methoxy]-N-cyclopentylcarboxamide]	69 % of CPA	> 1460 nM		Partial (= 2759)		GTPγS (Adenosine A1 receptor [1]): 50%
O[C@@H]1[C@H](O)[C@@H](CSc2cccc(F)c2)O[C@H]1n1cnc2c(N[C@@H]3CCOC3)ncnc21 [Compound 20 of Example 4, 2-{6-[((3R)oxolan-3-yl)amino]purin-9-yl}(4S,5S,2R,3R)-5-[(3-fluorophenylthio)methyl]oxolane-3,4-diol]	84.2 % of CPA	1560 nM		Partial (= 2759)		
CNC(=S)OC[C@H]1O[C@@H](n2cnc3c(N[C@@H]4CCOC4)nc(Cl)nc32)[C@H](O)[C@@H]1O [Compound 81 of Example 2]	84 % of CPA	1110 nM	500	Partial	600	EC50 [3, 7]: 530 nM
Nc1ncnc2c1ncn2[C@@H]1O[C@H](CO)[C@@H](O)[C@H]1O [Adenosine]						adenosine concentration causing second-degree AV block ([3]; absence of Compound 6 of Example 2): 6 µM; duration of atrial monophasic action potential at 90% of repolarization [4]: 22 ± 5 ms; maximal increase of coronary conductance [5]: 0.15±0.02 ml min^−1 mmHg^−1

— patent US6576620B2, “Method of identifying partial adenosine A1 receptor agonists” (CV Therapeutics, Inc., priority 1999, dated 2003)
